Experimental data: patent US20260193116A1, “MEMBRANE TREATMENT METHOD, BIOFOULING INHIBITION METHOD, AND ENDOTOXIN PRODUCTION INHIBITION METHOD IN WATER SYSTEM” (KURITA WATER INDUSTRIES LTD., priority 2022, published 2026)

Legend:
[1] = system: biofouling of RO membrane (MFS cell); assay: MFS water flow test (Example 1): differential pressure increase of the RO membrane cell
[2] = system: biofouling of RO membrane (MFS cell); assay: MFS water flow test (Example 3): differential pressure increase of the RO membrane cell; conditions: citric acid + ammonium chloride + sodium phosphate, 35° C., 0.36 mg/L as Cl2 (DPD method), Continuous addition
[3] = system: bacterial flora in a biofilm attached to a RO membrane surface; assay: Bacterial flora analysis (16S rRNA amplicon) of biofilm attached to RO membrane surface after water flow test (Example 2)

O=S(=O)(O)NCl.[Na] [Chlorosulfamic acid, sodium monochlorosulfamic acid]
Differential pressure suppression effect vs Control [1]: 102%
Differential pressure suppression effect vs Control [2]: 95%
(Negative bacteria/[negative bacteria + positive bacterial]) (%) [3]: 18.2%
Acidovorax existence ratio in bacterial flora [3]: 0.1%
Azotobacter existence ratio in bacterial flora [3]: 0.4%
Cupriavidus existence ratio in bacterial flora [3]: 4.6%
Dominant bacteria in the biofilm (in words) [3]: Mycolicibacterium genus bacteria and Mycobacterium genus bacteria, which are gram-positive bacteria, were dominant
Gram-negative bacteria (%) [3]: 16.7%
Gram-negative bacteria Others existence ratio in bacterial flora [3]: 6.5%
Gram-positive bacteria existence ratio in bacterial flora [3]: 75.1%
Pseudomonas existence ratio in bacterial flora [3]: 4.8%
Ralstonia existence ratio in bacterial flora [3]: 0.3%
Unknown bacteria existence ratio in bacterial flora [3]: 8.2%
